From ChEMBL document CHEMBL3399966, “Isosteric replacements of the carboxylic acid of drug candidate VX-787: Effect of charge on antiviral potency and kinase activity of azaindole-based influenza PB2 inhibitors” (Bioorg Med Chem Lett, 2015) come the findings set out here.

The subject of assay [1] is Influenza A virus. Briefly: Antiviral activity against Influenza A virus A/PR/8/34 strain incubated with MDCK cells assessed as cell protection after 72 hrs by phenotypic cell protection assay. The following applies: A/Puerto Rico/8/1934(H1N1). It counts as functional, organism-based.
For assay [2], the system named is Influenza A virus. Put plainly: Antiviral activity against influenza A virus A/PR/8/34 strain incubated with MDCK cells assessed as reduction of viral RNA level equal to 1% of control level after 72 hrs by branched DNA assay. It counts as functional, organism-based. The settings on record: A/Puerto Rico/8/1934(H1N1).
Assay [3] addresses Tyrosine-protein kinase JAK2 (Homo sapiens, UniProt O60674). Briefly: Inhibition of JAK2 (unknown origin).
Assay [4] concerns the target Glycogen synthase kinase-3 (Homo sapiens, UniProt P49840+P49841). Briefly: Inhibition of GSK3 (unknown origin). It counts as protein assay.
Assay [5] has as its target T1, Receptor-type tyrosine-protein kinase FLT3 (Homo sapiens, UniProt P36888).
T1 sequence (P36888 whole entry): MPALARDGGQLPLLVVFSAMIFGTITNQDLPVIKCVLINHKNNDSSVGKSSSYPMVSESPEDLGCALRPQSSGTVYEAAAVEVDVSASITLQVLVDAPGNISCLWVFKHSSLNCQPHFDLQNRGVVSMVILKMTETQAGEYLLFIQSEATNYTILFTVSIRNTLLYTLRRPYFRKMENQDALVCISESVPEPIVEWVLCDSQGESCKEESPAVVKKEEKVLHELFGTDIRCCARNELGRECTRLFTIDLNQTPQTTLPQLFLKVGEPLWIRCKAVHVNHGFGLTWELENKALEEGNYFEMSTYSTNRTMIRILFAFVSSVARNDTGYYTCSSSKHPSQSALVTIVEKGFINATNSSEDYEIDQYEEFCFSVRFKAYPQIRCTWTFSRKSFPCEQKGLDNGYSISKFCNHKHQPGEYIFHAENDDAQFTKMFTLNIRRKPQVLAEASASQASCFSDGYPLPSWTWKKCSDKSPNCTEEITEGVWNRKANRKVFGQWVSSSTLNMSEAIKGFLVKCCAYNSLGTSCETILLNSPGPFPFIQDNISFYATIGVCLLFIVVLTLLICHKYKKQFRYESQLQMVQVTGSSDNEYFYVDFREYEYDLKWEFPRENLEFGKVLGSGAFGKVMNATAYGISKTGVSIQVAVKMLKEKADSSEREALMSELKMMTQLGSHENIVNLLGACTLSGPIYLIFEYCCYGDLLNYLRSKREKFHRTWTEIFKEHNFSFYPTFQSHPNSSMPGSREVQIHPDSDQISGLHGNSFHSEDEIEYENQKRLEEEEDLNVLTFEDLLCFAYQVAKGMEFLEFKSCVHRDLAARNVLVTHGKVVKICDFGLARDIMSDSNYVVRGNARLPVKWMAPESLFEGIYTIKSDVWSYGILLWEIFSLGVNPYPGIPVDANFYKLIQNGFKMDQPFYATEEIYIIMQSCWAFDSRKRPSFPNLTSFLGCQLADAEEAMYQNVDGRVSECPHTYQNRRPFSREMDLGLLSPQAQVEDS
Briefly: Inhibition of FLT3 (unknown origin).

The target in assay [6] is Mitogen-activated protein kinase 10 (Homo sapiens, UniProt P53779). Briefly: Inhibition of JNK3 (unknown origin).
Assay [7] addresses Rho-associated protein kinase (Homo sapiens, UniProt O75116+Q13464). Put plainly: Inhibition of ROCK (unknown origin). It counts as protein-complex assay.
Assay [8] addresses Vascular endothelial growth factor receptor 2 (Homo sapiens, UniProt P35968). Put plainly: Inhibition of KDR (unknown origin).
Assay [9] deals with Proto-oncogene tyrosine-protein kinase Src (Homo sapiens, UniProt P12931). Put plainly: Inhibition of SRC (unknown origin).
For assay [10], the target named is cAMP-dependent protein kinase catalytic subunit alpha (Homo sapiens, UniProt P17612). Put plainly: Inhibition of PKAa (unknown origin).
Assay [11] addresses T2, Interleukin-1 receptor-associated kinase 4 (Homo sapiens, UniProt Q9NWZ3).
T2 sequence (Q9NWZ3 whole entry): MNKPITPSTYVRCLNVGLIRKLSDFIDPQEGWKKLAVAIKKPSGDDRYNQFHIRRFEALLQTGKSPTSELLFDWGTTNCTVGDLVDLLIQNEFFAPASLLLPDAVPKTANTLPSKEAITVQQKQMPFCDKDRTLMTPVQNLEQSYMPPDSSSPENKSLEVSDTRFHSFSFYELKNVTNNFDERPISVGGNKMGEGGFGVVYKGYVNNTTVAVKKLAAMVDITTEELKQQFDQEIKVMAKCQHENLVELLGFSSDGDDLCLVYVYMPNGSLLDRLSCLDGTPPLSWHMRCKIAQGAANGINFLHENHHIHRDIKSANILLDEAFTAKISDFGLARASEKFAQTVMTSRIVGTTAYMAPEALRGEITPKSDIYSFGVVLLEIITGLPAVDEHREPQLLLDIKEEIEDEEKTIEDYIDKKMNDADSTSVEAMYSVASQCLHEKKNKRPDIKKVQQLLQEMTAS
Briefly: Inhibition of IRAK4 (unknown origin).

Assay [12] addresses Tyrosine-protein kinase SYK (Homo sapiens, UniProt P43405). Briefly: Inhibition of SYK (unknown origin).
Assay [13] has as its target Cyclin-dependent kinase 2 (Homo sapiens, UniProt P24941). Briefly: Inhibition of CDK2 (unknown origin).
Assay [14] addresses Serine/threonine-protein kinase PLK1 (Homo sapiens, UniProt P53350). Briefly: Inhibition of PLK (unknown origin).
The target in assay [15] is Hepatocyte growth factor receptor (Homo sapiens, UniProt P08581). Put plainly: Inhibition of MET (unknown origin).
For assay [16], the target named is Phosphatidylinositol 4,5-bisphosphate 3-kinase catalytic subunit alpha isoform (Homo sapiens, UniProt P42336). Put plainly: Inhibition of PI3Kalpha (unknown origin).
The target of assay [17] is T3, Phosphatidylinositol 4,5-bisphosphate 3-kinase catalytic subunit delta isoform (Homo sapiens, UniProt O00329).
T3 sequence (O00329 whole entry): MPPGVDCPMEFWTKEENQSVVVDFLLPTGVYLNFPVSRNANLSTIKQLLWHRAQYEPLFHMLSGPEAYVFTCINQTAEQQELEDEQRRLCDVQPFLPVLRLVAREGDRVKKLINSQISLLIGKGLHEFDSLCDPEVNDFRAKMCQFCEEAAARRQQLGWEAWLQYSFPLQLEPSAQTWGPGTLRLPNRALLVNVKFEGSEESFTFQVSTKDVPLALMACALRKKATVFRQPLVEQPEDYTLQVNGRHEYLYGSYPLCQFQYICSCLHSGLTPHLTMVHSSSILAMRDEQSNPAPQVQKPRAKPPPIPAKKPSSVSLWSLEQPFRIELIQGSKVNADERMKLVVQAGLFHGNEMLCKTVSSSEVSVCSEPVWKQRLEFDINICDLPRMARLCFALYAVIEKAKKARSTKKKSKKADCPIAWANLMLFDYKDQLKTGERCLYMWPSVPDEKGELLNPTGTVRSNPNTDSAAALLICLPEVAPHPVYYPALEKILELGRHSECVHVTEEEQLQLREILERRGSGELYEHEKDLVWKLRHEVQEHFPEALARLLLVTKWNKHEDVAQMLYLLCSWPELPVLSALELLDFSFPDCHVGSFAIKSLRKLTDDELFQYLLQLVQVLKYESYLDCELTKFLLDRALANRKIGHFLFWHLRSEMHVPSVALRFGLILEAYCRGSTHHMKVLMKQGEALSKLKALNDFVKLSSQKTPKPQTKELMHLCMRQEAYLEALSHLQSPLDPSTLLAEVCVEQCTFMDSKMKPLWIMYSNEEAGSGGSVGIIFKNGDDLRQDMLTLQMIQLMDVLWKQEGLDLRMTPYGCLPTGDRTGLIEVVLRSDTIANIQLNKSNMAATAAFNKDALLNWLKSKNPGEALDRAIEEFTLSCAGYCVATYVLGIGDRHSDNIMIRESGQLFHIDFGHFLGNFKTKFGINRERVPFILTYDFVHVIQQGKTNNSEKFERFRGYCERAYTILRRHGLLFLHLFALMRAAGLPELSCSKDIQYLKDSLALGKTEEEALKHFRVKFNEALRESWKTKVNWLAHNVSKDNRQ
Briefly: Inhibition of PI3Kdelta (unknown origin).

Assay [18] addresses Phosphatidylinositol 4,5-bisphosphate 3-kinase catalytic subunit gamma isoform (Homo sapiens, UniProt P48736). Put plainly: Inhibition of PI3Kgamma (unknown origin).
Assay [19] deals with Phosphatidylinositol 4,5-bisphosphate 3-kinase catalytic subunit beta isoform (Homo sapiens, UniProt P42338). Briefly: Inhibition of PI3Kbeta (unknown origin).
Sequence of Phosphatidylinositol 4,5-bisphosphate 3-kinase catalytic subunit beta isoform (P42338 whole entry, canonical isoform): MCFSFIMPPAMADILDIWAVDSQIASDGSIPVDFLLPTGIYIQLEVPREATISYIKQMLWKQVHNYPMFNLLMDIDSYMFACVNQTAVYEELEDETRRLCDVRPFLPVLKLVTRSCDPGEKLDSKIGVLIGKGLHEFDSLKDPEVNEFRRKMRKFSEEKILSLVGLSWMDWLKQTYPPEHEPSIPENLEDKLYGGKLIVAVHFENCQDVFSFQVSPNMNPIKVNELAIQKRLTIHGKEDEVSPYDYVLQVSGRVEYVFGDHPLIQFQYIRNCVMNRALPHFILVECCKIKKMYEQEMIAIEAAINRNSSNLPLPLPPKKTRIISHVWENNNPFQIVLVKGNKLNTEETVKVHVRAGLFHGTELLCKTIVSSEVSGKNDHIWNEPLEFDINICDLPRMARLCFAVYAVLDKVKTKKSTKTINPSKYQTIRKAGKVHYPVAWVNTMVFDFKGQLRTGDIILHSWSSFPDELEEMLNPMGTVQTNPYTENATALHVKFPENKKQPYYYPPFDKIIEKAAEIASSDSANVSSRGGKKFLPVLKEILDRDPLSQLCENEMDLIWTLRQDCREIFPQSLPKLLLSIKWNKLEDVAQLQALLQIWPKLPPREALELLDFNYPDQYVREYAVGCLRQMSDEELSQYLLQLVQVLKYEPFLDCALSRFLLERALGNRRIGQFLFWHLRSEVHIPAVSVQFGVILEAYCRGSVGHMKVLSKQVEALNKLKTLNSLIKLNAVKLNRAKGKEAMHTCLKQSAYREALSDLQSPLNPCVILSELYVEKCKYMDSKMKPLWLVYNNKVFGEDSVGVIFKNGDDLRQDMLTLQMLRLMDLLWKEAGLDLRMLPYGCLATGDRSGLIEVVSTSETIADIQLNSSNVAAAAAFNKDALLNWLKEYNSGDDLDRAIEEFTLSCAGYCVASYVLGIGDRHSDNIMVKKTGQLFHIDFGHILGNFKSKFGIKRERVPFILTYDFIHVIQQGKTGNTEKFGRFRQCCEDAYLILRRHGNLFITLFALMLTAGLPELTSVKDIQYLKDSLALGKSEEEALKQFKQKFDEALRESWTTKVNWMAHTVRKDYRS

Sequence of Hepatocyte growth factor receptor (P08581 whole entry, canonical isoform): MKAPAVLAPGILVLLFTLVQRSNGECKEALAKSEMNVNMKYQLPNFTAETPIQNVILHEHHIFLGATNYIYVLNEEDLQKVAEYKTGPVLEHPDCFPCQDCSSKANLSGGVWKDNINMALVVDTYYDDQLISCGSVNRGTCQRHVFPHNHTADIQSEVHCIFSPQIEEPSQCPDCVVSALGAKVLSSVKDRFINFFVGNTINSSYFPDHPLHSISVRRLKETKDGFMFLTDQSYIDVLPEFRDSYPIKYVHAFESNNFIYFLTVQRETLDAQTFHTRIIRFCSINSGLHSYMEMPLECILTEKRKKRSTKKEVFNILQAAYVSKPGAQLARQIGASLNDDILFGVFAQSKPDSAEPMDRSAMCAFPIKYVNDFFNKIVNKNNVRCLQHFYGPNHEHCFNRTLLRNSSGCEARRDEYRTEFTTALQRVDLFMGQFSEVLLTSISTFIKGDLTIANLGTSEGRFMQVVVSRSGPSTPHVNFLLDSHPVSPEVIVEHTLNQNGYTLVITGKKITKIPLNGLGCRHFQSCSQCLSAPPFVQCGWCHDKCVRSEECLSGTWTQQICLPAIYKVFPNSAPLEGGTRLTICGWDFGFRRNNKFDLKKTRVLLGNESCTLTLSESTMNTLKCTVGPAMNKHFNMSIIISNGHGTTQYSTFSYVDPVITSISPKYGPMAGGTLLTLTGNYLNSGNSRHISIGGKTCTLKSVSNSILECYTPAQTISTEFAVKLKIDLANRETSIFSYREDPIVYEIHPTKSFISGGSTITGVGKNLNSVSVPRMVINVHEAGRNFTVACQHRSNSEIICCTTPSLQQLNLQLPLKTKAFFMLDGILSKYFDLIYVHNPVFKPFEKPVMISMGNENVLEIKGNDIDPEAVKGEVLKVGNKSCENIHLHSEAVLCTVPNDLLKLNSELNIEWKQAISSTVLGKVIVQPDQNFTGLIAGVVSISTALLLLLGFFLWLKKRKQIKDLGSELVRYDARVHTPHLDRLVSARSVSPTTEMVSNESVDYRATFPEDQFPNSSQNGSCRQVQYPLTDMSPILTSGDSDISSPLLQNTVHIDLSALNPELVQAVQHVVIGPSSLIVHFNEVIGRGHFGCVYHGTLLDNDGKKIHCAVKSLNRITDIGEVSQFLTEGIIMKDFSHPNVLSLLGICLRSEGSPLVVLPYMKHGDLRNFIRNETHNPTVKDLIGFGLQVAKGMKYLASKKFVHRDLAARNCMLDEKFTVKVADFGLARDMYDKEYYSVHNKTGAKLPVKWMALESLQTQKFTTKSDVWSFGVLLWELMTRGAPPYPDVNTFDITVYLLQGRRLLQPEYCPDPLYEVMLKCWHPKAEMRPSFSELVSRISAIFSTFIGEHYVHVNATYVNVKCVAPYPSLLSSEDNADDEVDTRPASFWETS
Sequence of Proto-oncogene tyrosine-protein kinase Src (P12931 2-536 limits assumed): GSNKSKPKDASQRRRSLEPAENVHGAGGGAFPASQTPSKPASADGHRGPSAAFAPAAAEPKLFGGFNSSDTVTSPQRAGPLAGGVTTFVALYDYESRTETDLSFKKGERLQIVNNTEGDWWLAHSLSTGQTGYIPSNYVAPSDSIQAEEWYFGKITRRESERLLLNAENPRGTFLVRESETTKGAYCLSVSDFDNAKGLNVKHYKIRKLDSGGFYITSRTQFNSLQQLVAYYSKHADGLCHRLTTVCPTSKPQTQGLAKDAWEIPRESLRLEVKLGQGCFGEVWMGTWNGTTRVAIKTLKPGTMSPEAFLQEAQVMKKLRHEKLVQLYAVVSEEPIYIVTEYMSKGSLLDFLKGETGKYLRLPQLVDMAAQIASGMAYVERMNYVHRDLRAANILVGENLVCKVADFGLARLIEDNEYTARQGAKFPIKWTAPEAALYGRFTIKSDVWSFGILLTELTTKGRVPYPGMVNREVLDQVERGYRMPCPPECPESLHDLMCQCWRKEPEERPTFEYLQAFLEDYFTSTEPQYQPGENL
Sequence of Tyrosine-protein kinase JAK2 (O60674 whole entry): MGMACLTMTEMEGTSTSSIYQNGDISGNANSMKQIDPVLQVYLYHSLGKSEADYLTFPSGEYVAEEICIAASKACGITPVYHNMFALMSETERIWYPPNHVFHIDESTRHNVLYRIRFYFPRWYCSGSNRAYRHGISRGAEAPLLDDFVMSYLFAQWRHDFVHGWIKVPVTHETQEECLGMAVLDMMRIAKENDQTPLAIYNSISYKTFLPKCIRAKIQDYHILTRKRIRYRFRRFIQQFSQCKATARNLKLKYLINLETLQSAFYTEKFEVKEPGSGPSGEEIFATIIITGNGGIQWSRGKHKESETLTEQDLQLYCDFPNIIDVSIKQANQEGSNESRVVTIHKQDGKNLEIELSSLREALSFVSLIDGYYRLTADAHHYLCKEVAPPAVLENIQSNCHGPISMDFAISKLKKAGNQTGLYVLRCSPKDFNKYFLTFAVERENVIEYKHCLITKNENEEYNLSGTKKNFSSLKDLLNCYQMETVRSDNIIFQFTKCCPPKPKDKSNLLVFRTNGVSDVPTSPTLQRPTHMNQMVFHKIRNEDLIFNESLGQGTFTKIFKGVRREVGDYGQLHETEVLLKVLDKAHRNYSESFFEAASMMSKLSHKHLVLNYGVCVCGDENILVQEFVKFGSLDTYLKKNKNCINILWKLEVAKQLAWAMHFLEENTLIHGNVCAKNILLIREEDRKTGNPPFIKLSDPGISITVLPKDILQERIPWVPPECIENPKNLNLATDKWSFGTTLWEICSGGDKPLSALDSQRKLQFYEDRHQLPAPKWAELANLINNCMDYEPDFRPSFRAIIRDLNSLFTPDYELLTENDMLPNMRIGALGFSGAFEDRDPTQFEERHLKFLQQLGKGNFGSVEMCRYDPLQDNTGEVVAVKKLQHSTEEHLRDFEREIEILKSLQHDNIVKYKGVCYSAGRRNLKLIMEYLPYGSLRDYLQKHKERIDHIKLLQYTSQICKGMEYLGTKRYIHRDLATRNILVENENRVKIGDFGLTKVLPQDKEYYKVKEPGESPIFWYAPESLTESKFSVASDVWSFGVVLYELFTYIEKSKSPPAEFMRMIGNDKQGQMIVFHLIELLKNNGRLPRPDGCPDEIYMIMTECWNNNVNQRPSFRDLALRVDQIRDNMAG
Sequence of Serine/threonine-protein kinase PLK1 (P53350 whole entry): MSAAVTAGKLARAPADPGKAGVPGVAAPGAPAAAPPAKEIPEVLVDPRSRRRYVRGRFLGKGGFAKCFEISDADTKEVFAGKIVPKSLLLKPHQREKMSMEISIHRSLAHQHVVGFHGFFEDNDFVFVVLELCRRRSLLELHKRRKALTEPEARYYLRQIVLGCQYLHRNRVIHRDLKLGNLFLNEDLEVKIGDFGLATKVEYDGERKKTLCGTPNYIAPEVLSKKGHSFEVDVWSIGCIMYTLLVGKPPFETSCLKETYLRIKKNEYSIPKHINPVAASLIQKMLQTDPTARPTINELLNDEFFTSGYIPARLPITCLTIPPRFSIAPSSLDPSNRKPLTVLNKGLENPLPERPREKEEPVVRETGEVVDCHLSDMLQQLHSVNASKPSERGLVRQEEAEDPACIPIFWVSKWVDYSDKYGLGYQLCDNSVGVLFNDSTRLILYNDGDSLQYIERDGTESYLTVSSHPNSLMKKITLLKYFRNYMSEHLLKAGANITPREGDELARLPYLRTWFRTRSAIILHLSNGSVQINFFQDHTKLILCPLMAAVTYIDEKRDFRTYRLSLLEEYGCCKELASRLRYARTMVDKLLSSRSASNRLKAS

With `Oc1cc([C@H]2C3CCC(CC3)[C@@H]2Nc2nc(-c3c[nH]c4ncc(F)cc34)ncc2F)no1` (mixture of isomers), the IC50 in the assay with Influenza A virus [1] came to 0.072 µM. Moreover, in the assay with Influenza A virus [2], the EC50 is 0.011 µM. For the same compound, the EC99 in the assay on Influenza A virus [2] came to 0.062 µM. The Ki in assay [3] was 0.2 µM; in assay [4], 0.06 µM; in assay [5], 0.8 µM; in [6], over 4 µM; in assay [7] it was over 4 µM; in assay [8], over 4 µM. For the same compound, the Ki was over 4 µM in [9]; 0.59 µM in assay [10]; over 4 µM in assay [11]; over 4 µM in assay [12]; over 4 µM in assay [13]; 1 µM in assay [14]. In addition, the inhibition constant (Ki) is over 4 µM in [15]; 0.88 µM in assay [16]; over 4 µM in assay [17]; 0.75 µM in [18]; over 4 µM in assay [19].
For the compound `CC(=O)NS(=O)(=O)[C@H]1C2CCC(CC2)[C@@H]1Nc1nc(-c2c[nH]c3ncc(F)cc23)ncc1F` (mixture of isomers), the IC50 in the assay with Influenza A virus [1] came out at 0.019 µM. The concentration giving a half-maximal response (EC50) with Influenza A virus [2] stood at 0.009 µM. The EC99 with Influenza A virus [2] is 0.16 µM. Also, the Ki in assay [3] was over 4 µM; in assay [4], 0.31 µM; in assay [5], 2.8 µM; in assay [6], over 4 µM; in assay [7], over 4 µM; in assay [8] it was over 4 µM. Also, the Ki in assay [9], in [10], in assay [11], in assay [12], in assay [13] and in [14] was over 4 µM each time. Further, the Ki in [15] is over 4 µM; in assay [16], over 4 µM; in assay [17], over 4 µM; in assay [18], 1.5 µM; in assay [19], over 4 µM.
For the compound `O=P(O)(O)[C@H]1C2CCC(CC2)[C@@H]1Nc1nc(-c2c[nH]c3ncc(F)cc23)ncc1F` (mixture of isomers), the IC50 in the assay on Influenza A virus [1] came to 0.091 µM. In addition, in the assay on Influenza A virus [2], the EC50 came to 0.051 µM. In addition, in the assay on Influenza A virus [2], the EC99 was 0.29 µM. Also, the Ki is over 4 µM in assay [3]; over 4 µM in assay [4]; 1.1 µM in assay [5]; over 4 µM in [6]; over 4 µM in assay [7]; over 4 µM in assay [8]. The inhibition constant (Ki) in assay [9], in assay [10], in assay [11], in [12], in assay [13] and in [14] was over 4 µM each time. Moreover, the Ki in assay [15], in assay [16], in [17], in assay [18] and in assay [19] was over 4 µM throughout.
As to `O=c1nc([C@H]2C3CCC(CC3)[C@@H]2Nc2nc(-c3c[nH]c4ncc(F)cc34)ncc2F)[nH]o1` (mixture of isomers), the concentration for a half-maximal effect (EC50) in the assay with Influenza A virus [2] is 0.029 µM. In the assay on Influenza A virus [2], the EC99 was 0.14 µM. For the same compound, the Ki in [3], in assay [4], in [5], in assay [6], in assay [7] and in assay [8] was over 4 µM each time. Further, the Ki in [9], in [10], in [11], in assay [12], in assay [13] and in assay [14] was over 4 µM each time. In addition, the inhibition constant (Ki) in assay [15], in assay [16], in assay [17], in assay [18] and in assay [19] was over 4 µM throughout.
For `CC(O)[C@H]1C2CCC(CC2)[C@@H]1Nc1nc(-c2c[nH]c3ncc(F)cc23)ncc1F` (mixture of isomers), the IC50 in the assay on Influenza A virus [1] was determined as 0.31 µM. Besides, the concentration giving a half-maximal response (EC50) in the assay on Influenza A virus [2] amounted to 0.49 µM. Also, in the assay on Influenza A virus [2], the EC99 is over 3.1 µM. Also, the Ki was 0.24 µM in [3]; 0.066 µM in assay [4]; 0.15 µM in [5]; over 4 µM in assay [6]; 0.31 µM in assay [7]; 2 µM in [8]. The Ki in assay [9] is 0.97 µM; in assay [10], over 4 µM; in assay [11], 3.3 µM; in assay [12], over 4 µM; in assay [13], 1.2 µM; in assay [14] it was 1 µM. The Ki in assay [15] was over 4 µM; in assay [16], over 4 µM; in assay [17], over 4 µM; in assay [18], 0.78 µM; in assay [19], over 4 µM.
Turning to `O=C(O)[C@H]1C2CCC(CC2)[C@@H]1Nc1nc(-c2c[nH]c3ncc(F)cc23)ncc1F` [PIMODIVIR], in the assay on Influenza A virus [1], the IC50 came out at 0.002 µM. The concentration giving a half-maximal response (EC50) in the assay with Influenza A virus [2] turned out to be 0.002 µM. Besides, the EC99 in the assay on Influenza A virus [2] came to 0.011 µM. Besides, the Ki is over 4 µM in assay [3], 1.6 µM in [4] and over 4 µM in [5].

Usually IC50 stands for the concentration that inhibits the measured activity by half. What is called EC50 is the concentration giving half of the maximal effect. One may read the EC99 as the concentration needed for an effect of 99%. A word on the Ki: it is a dissociation constant, usually derived from enzyme kinetics or from competition with a known ligand. High values mean weaker binding, low ones tighter binding.
